Results from paper PMC10539439 (Pharmacological Reports, 2023).
Several values for one entry are separate records, joined by “and”; a condition that tells them apart may be missing. Identical values can stand only once.

Tests used:
[1] = Spontaneous activity in the home cage (RFID, TraffiCage); assay type: in vivo, rat; details: for activity: hight-fat diet, 5mg/kg, after first administration, 5 mg/kg
Procedure: Rat spontaneous activity was monitored for 24 h on the 1st and 24th (after multiple administrations of tested compound or vehicle) day of treatment with a radio-frequency identification system (RFID system)—TraffiCage (TSE-Systems, Germany)—transponder-based activity monitoring under group housing. The animals had subcutaneously implanted transponder identification with RFID code, which allowed the presence and time spent in different areas of the home cage to be recorded. The data were collected with a dedicated platform, placed under the home cage, containing five RFID antennas (six cage areas) reading telemetrically the presence of RFID chips and stored for analysis with a dedicated computer program. The animals during the monitoring of spontaneous activity were in home cages and always had free access to food and water.

[2] = Plasma glucose, triglyceride and total cholesterol of obese rats; assay type: in vivo, rat; details: for plasma glucose concentration / plasma total cholesterol concentration / plasma triglyceride concentration: high-fat diet, single rats 1-6
Procedure: On the 26th day of the experiment, 20 min after ip administration of heparin (5000 IU/rat) and thiopental (70 mg/kg b.w.), plasma was collected from the left carotid artery and then centrifuged at 600 × g (15 min, 4 °C) to obtain the plasma.
To determine the glucose, triglyceride, or cholesterol level in plasma, standard enzyme and spectrophotometric tests (Biomaxima S.A. Lublin, Poland) were used. The substrate was decomposed with enzymes appropriate for the relevant product, which was converted to a colored compound. The colouration was proportional to the concentration. The absorbance was measured at a wavelength of 500 nm.

TAAR1 = target: T1, TAAR1 (Homo sapiens, UniProt Q96RJ0); parameters: method as in PMID 21525407; details: summary table; cited from earlier work
T1 sequence (Q96RJ0 1-339): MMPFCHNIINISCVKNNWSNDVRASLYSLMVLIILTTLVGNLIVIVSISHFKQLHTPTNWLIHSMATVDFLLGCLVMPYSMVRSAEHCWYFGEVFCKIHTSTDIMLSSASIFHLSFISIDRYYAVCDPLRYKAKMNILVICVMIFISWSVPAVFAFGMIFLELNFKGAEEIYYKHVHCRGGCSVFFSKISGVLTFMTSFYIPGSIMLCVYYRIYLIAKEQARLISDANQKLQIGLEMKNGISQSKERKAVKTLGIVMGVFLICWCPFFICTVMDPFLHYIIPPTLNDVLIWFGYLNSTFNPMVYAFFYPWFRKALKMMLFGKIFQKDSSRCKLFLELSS

[3] = 5 mg/kg b.w., i.p.; cited from earlier work

Q: For `Cl.N=C(N)NN=Cc1c(Cl)cc(O)cc1Cl` [4-OH-Guanabenz, 2-[(2,6-Dichloro-4-hydroxyphenyl)methylene]hydrazinecarboximidamide Hydrochloride], which activity ([1]; hour 2, individual rats) is on record?
A: 241 counts and 466 counts and 407 counts and 76 counts and 54 counts

Q: What about the activity ([1]; hour 3, individual rats) of the same compound?
A: 175 counts and 744 counts and 1081 counts and 269 counts and 412 counts

Q: What about the activity ([1]; hour 4, individual rats) of the same compound?
A: 468 counts and 421 counts and 262 counts and 105 counts and 179 counts

Q: What about the activity ([1]; hour 5, individual rats) of the same compound?
A: 721 counts and 62 counts and 232 counts and 2 counts and 78 counts

Q: What about the activity ([1]; hour 6, individual rats) of the same compound?
A: 248 counts and 6* counts and 445 counts and 569 counts and 80 counts

Q: And the activity ([1]; hour 7, individual rats)?
A: 1058 counts and 287 counts and 302 counts and 211 counts and 276 counts

Q: And the activity ([1]; hour 8, individual rats)?
A: 513 counts and 751 counts and 432 counts (2×) and 306 counts

Q: What about the activity ([1]; hour 9, individual rats) of the same compound?
A: 853 counts and 240 counts and 521 counts and 547 counts and 173 counts

Q: What about the activity ([1]; hour 10, individual rats) of the same compound?
A: 276 counts and 938 counts and 536 counts and 556 counts and 142 counts

Q: And the activity ([1]; hour 11, individual rats)?
A: 504 counts and 558 counts and 708 counts and 326 counts and 403 counts

Q: What about the activity ([1]; hour 12, individual rats) of the same compound?
A: 347 counts and 440 counts and 410 counts and 404 counts and 692 counts

Q: What about the activity ([1]; hour 13, individual rats) of the same compound?
A: 674 counts and 446 counts and 516 counts and 428 counts and 684 counts

Q: And the activity ([1]; hour 14, individual rats)?
A: 437 counts and 1077* counts and 632 counts and 394 counts and 897 counts

Q: What about the activity ([1]; hour 15, individual rats) of the same compound?
A: 692 counts and 273 counts and 929 counts and 462 counts and 743 counts

Q: And the activity ([1]; hour 16, individual rats)?
A: 387 counts and 825 counts and 409 counts and 821 counts and 664 counts

Q: And the activity ([1]; hour 17, individual rats)?
A: 618 counts and 1081 counts and 250 counts and 383 counts and 813 counts

Q: And the activity ([1]; hour 18, individual rats)?
A: 339 counts and 628 counts and 260 counts and 133 counts and 576 counts

Q: What about the activity ([1]; hour 19, individual rats) of the same compound?
A: 608 counts and 953 counts and 971 counts and 592 counts and 271 counts

Q: What about the activity ([1]; hour 20, individual rats) of the same compound?
A: 298 counts and 398 counts and 614 counts and 684 counts and 663 counts

Q: What about the activity ([1]; hour 21, individual rats) of the same compound?
A: 215 counts and 344 counts and 275 counts and 266 counts and 475 counts

Q: What about the “effect on spontaneous activity (in words)” value ([1]; obese rats, after the first and 24th administration, 5 mg/kg b.w.) of the same compound?
A: no effect

Q: What about the “effect on plasma total cholesterol (in words)” value ([2]; high-fat diet rats, 5 mg/kg b.w.) of the same compound?
A: highest plasma level of total cholesterol

Q: And the “effect on plasma triglyceride level (in words)” value ([2]; high-fat diet rats, 5 mg/kg b.w., vs obese control)?
A: significantly decreased plasma triglyceride levels

Q: And the plasma glucose concentration ([2]; 2mg/kg)?
A: 4.77 mmol/L and 5.43 mmol/L and 6.06 mmol/L and 5.37 mmol/L and 5.51 mmol/L

Q: And the “plasma total cholesterol concentration” value ([2]; 2mg/kg)?
A: 0.86 mmol/L and 0.71 mmol/L and 0.87 mmol/L and 0.75 mmol/L and 0.78 mmol/L and 0.93 mmol/L

Q: And the plasma triglyceride concentration ([2]; 2mg/kg)?
A: 0.17 mmol/L and 0.12 mmol/L and 0.21 mmol/L and 0.13 mmol/L and 0.14 mmol/L

Q: What about the plasma glucose concentration ([2]; 5mg/kg) of the same compound?
A: 4.45 mmol/L and 5.37 mmol/L and 4.63 mmol/L and 5.39 mmol/L and 3.28 mmol/L and 4.68 mmol/L

Q: What about the “plasma total cholesterol concentration” value ([2]; 5mg/kg) of the same compound?
A: 0.93 mmol/L and 0.87 mmol/L and 0.8 mmol/L and 1.08 mmol/L and 0.88 mmol/L and 0.84 mmol/L

Q: And the plasma triglyceride concentration ([2]; 5mg/kg)?
A: 0.12 mmol/L and 0.2 mmol/L and 0.1 mmol/L and 0.13 mmol/L and 0.18 mmol/L

Q: What about the “effect on blood glucose level (in words)” value ([2]; obese rats, both doses (2 or 5 mg/kg b.w.), vs obese animals treated with water) of the same compound?
A: significantly lower blood glucose levels

Q: For `N=C(N)N/N=C/c1c(Cl)cccc1Cl` [Guanabenz], which “Intrinsic activity at TAAR1” value (TAAR1) is on record?
A: Agonist [48]

Q: And the “Amount of calories consumed” value [3]?
A: ↓ [17]
